Assay results from patent US20260335278A1, “PHYTOCHEMICAL FORMULATIONS FOR TREATING STRESS AND ANXIETY” (GBS GLOBAL BIOPHARMA, INC., priority 2022, published 2026).
Entries after “also recorded” stand apart in the source; their conditions may differ.

Experiments:
[1] = test system: zebrafish larvae; test: Baseline activity / baseline exposure (90 min continuous light), zebrafish larvae; format: in vivo; set-up: key to Baseline Exposure: +: statistically significant increase; −−: statistically significant decrease
Description: (§1) The validation process for the phytochemicals derived from Piper methysticum, other Piper plant family members, and non-Piper medicinal plants and fungi includes testing the selected phytochemical drug candidates as singles, doubles, and triples in two complementary zebrafish models of stress and anxiety. These two complementary assays are the Light/Dark Stress Response test that is illustrated in FIG. 5 (after the 90 min study of the effect of the compounds and mixtures on Baseline Activity) and the Thigmotaxis assay, as illustrated in FIG. 61A and FIG. 61B, which is also known as the wall flower effect, like the social anxiety of humans. Zebrafish larvae show a clear and distinct pattern of swimming in response to rapidly alternating light and dark conditions in the Light/Dark Response testing, which trigger a flight or fight response and darting behavior indicative of great stress and anxiety. The Light/Dark testing uses a control group to automatically track, using an automatic tracking device, the larval behavior in response to dark to light conditions. The thigmotaxis assay also uses automatic tracking and appropriate controls. In multiple embodiments additional Zebrafish larvae are given various concentrations of the selected phytochemicals from Table 1 for tracking Light/Dark Responses or Thigmotactic behavioral changes in the treated zebrafish larvae. Table 2A and Table 2B summarize the results from both assays when the individual phytochemicals are exposed to the: Baseline Activity (90 minutes in the light), Light/Dark Stress Response (5 min alternating pulses of dark and light for 30 min.), and Thigmotaxis Activity (% of time in the light center of the chamber (anxiety inducing) versus % of time near the dark (soothing) wall).
(§2) The present invention includes a process to discover new pharmaceutical medicines for the treatment of stress, anxiety and anxiety-related disorders in a human. The preclinical testing included the effects of these 14 individual phytochemicals and 300 ratio-controlled mixtures of these phytochemicals in assays measuring the behavioral stress response patterns of zebrafish larvae. Larval behavior is assessed with at least one functional assay of stress or anxiety following acute exposure to each phytochemical sample formulated. Stereotypical basal activity patterns of zebrafish will be assessed to determine the potential side effects of the phytochemical samples in a concentration dependent manner for each compound on two zebrafish models of stress and anxiety: 1) the Light/Dark Stress Response (5 min alternating pulses of light and dark) in small to med well plates (96-48 well plates), and 2) Thigmotaxis assays in large well plates with 50% of the swimming surface colored dark around the margins of the well in large (24-12 well plates) will be assessed for their efficacy in testing the phytochemicals.
(§3) The discovery methods of the present invention include testing the effects of up to 20 phytochemicals and 40 mixtures of the phytochemicals on behavioral stress response patterns of zebrafish larvae. Larval behavior was assessed with an automated video tracking system following acute exposure to each phytochemical sample. Stereotypical basal activity patterns of larvae were assessed to determine the concentration dependent effect of each compound. A zebrafish model of thigmotaxis in large well plates (24-12 well plates) was assessed for their efficacy in testing the phytochemicals. In the discovery method, fertilized eggs were kept on a re-circulating system in baskets until use at 120 hpf (5 days). At 120 hpf, larvae were loaded into 48 well plates in buffered fish media and acclimated to the plate in a heated light incubator for 2 hours. Larvae were acutely exposed with drug or controls at a 10× concentration and the plate was quickly transferred to a behavioral tracking system. Acute behavioral run was 90 minutes (baseline activity) in the light followed by alternating 5 minute bins (total 2 hours). […]

[2] = test system: zebrafish larvae; test: Light/Dark Stress Response (5 min alternating pulses of dark and light for 30 min); format: in vivo; set-up: key to Light/Dark Stress Response: +: statistically significant increase; −−: statistically significant decrease
Description: as §1, §2, §3

[3] = test system: zebrafish larvae; test: Zebrafish models of stress and anxiety, overall verdict (Light/Dark Stress Response and thigmotaxis); format: in vivo; conditions: for Anti-Anxiety Potential?: API used singly
Description: as §1
Additionally, testing is done with mixtures of these same selected phytochemicals from P. methysticum and other plants selected by our in silico analyses. The testing results are analyzed using artificial intelligence systems to rank effectiveness in reducing the Light/Dark response and thigmotactic behavior for the
The A1 enabled drug discovery platform database search data was evaluated to select the best drug candidates from: A Piper methysticum, B. within the Piper plant family (>200 Piper spp.), or C. traditional medicines to begin testing […] (API) singles, doubles, and triples in two complementary zebrafish models of anxiety light/dark startle response testing and thigmotaxis assays.
as §2
The discovery methods of the present invention include testing the effects of up to 20 phytochemicals and 40 mixtures of the phytochemicals on behavioral stress response patterns of zebrafish larvae. Larval behavior was assessed with an automated video tracking system following acute exposure to each phytochemical sample. […]

[4] = test system: MAO-A; conditions: cited from earlier work
[5] = test system: MAO-B; conditions: cited from earlier work
[6] = test system: zebrafish larvae; test: Thigmotaxis assay; format: in vivo; set-up: key: +: statistically significant increase; −−: statistically significant decrease
Description: as §1, §2, §3

COC1=CC(=O)O[C@@H](CCc2ccccc2)C1 [(S)-(+)-7,8-dihydrokavain]
Baseline Exposure ([1]; High): −−
Baseline Exposure ([1]; Low): +
Baseline Exposure ([1]; Med): −−
baseline Activity (90 min light) ([1]; vehicle 0.5% MeOH): baseline activity is close to controls; also recorded: (slight increase initially)
baseline Activity (90 min light) ([1]; vehicle 1% MeOH): baseline activity levels reduced; also recorded: (evidence of sedation)
Light/Dark Stress Response (5 min light/dark pulses) ([2]; vehicle 0.5% MeOH): no reduction in stress response
Light/Dark Stress Response (5 min light/dark pulses) ([2]; vehicle 1% MeOH): stress response trending down, but high
Anti-Anxiety Potential? [3]: Yes
Therapeutic Potential ([3]; vehicle 0.5% MeOH): No
Therapeutic Potential ([3]; vehicle 1% MeOH): No
Approx. Dose (cell or animal experiments), MAO-A [4]: MAO-A none,
Approx. Dose (cell or animal experiments), MAO-B [5]: MAO-B 8.23 μM

CCCCCCCCCCCCCCCC(=O)NCCO [N-palmitoyl ethanolamide (PEA), N-palmitoyl ethanolamide]
Baseline Exposure ([1]; Med): +
baseline Activity (90 min light) ([1]; vehicle not given): baseline activity not like controls; also recorded: (increased at all concentrations)
Light/Dark Stress Response ([2]; High): +
Light/Dark Stress Response ([2]; Med): +
Light/Dark Stress Response (5 min light/dark pulses) ([2]; vehicle not given): stress response sometimes increased
Anti-Anxiety Potential? [3]: No
Therapeutic Potential ([3]; vehicle not given): No

COC1=CC(=O)O[C@@H](/C=C/c2ccc3c(c2)OCO3)C1 [R-(+)-methysticin]
Baseline Exposure ([1]; High): −−
Baseline Exposure ([1]; Low): +
baseline Activity (90 min light) ([1]; vehicle 0.5% MeOH): baseline activity levels reduced; also recorded: (evidence of sedation)
baseline Activity (90 min light) ([1]; vehicle 1% MeOH): baseline activity levels reduced; also recorded: (evidence of sedation)
Light/Dark Stress Response (5 min light/dark pulses) ([2]; vehicle 0.5% MeOH): no reduction in stress response
Light/Dark Stress Response (5 min light/dark pulses) ([2]; vehicle 1% MeOH): stress response is reduced, but high
Anti-Anxiety Potential? [3]: No
Therapeutic Potential ([3]; vehicle 0.5% MeOH): No
Therapeutic Potential ([3]; vehicle 1% MeOH): No, sedative effect
Approx. Dose (cell or animal experiments), MAO-A [4]: MAO-A 8.12 μM,
Approx. Dose (cell or animal experiments), MAO-B [5]: MAO-B 0.5 μM

COc1c(O)cc(O)c2c(=O)cc(-c3ccccc3)oc12 [Wogonin (hydrate), wogonin]
Baseline Exposure ([1]; High): +
Baseline Exposure ([1]; Med): +
baseline Activity (90 min light) ([1]; vehicle 1% MeOH): baseline activity not like controls; also recorded: (increased at med/high
Light/Dark Stress Response (5 min light/dark pulses) ([2]; vehicle 1% MeOH): no reduction in stress response
Anti-Anxiety Potential? [3]: No
Therapeutic Potential ([3]; vehicle 1% MeOH): No

O=c1cc(-c2ccccc2)oc2cc(O)c(O)c(O)c12 [bacalein]
Baseline Exposure ([1]; High): −−
Baseline Exposure ([1]; Med): +
baseline Activity (90 min light) ([1]; vehicle 1% MeOH): baseline activity not like controls; also recorded: (increased at low concentrations,; also recorded: sedating at higher concentrations)
Light/Dark Stress Response ([2]; High): −−
Light/Dark Stress Response ([2]; Med): −−
Light/Dark Stress Response (5 min light/dark pulses) ([2]; vehicle 1% MeOH): stress response is reduced, but sedation
Anti-Anxiety Potential? [3]: Yes

C=C1CC/C=C(\C)CC[C@@H]2[C@@H]1CC2(C)C [beta caryophyllene]
Baseline Exposure ([1]; High): +
Baseline Exposure ([1]; Low): +
Baseline Exposure ([1]; Med): +
baseline Activity (90 min light) ([1]; vehicle 1% MeOH): baseline activity not like controls; also recorded: (increased at all concentrations); also recorded: conc., but baseline activity is concerning
Light/Dark Stress Response ([2]; High): −−
Light/Dark Stress Response ([2]; Low): +
Light/Dark Stress Response (5 min light/dark pulses) ([2]; vehicle 1% MeOH): stress response reduced in highest
Anti-Anxiety Potential? [3]: No
Therapeutic Potential ([3]; vehicle 1% MeOH): No

C=C(C)[C@@H]1CCC(C)=C[C@H]1c1c(O)cc(CCCCC)cc1O [cannabidiol (CBD), cannabidiol, reference compound]
Baseline Exposure ([1]; High): −−
Baseline Exposure ([1]; Low): +
Baseline Exposure ([1]; Med): −−
baseline Activity (90 min light) ([1]; vehicle 1% MeOH): baseline activity not like controls; also recorded: (increased at low concentrations,; also recorded: sedating at higher concentrations)
Light/Dark Stress Response ([2]; High): −−
Light/Dark Stress Response ([2]; Low): +
Light/Dark Stress Response ([2]; Med): −−
Light/Dark Stress Response (5 min light/dark pulses) ([2]; vehicle 1% MeOH): stress response is reduced
Thigmotaxis Model ([6]; High): −−
Anti-Anxiety Potential? [3]: Yes

COc1cc(/C=C/C(=O)CC(=O)/C=C/c2ccc(O)c(OC)c2)ccc1O [curcumin]
Baseline Exposure ([1]; High): +
Baseline Exposure ([1]; Med): +
baseline Activity (90 min light) ([1]; vehicle 1% MeOH): baseline activity not like controls; also recorded: (increased at med/high; also recorded: conc., but baseline activity is concerning
Light/Dark Stress Response ([2]; High): −−
Light/Dark Stress Response (5 min light/dark pulses) ([2]; vehicle 1% MeOH): stress response reduced in highest
Anti-Anxiety Potential? [3]: No
Therapeutic Potential ([3]; vehicle 1% MeOH): No, sedative effect
Approx. Dose (cell or animal experiments), MAO-A [4]: MAOA 9.01 μM, MAOB
Approx. Dose (cell or animal experiments), MAO-B [5]: 2.55 µM

C=CCc1ccc(OC)cc1 [methyl chavicol (4-allylanisole), 4-allylanisole]
Baseline Exposure ([1]; High): −−
Baseline Exposure ([1]; Med): −−
baseline Activity (90 min light) ([1]; vehicle 1% MeOH): baseline activity not like controls; also recorded: (decreased at high concentrations)
Light/Dark Stress Response ([2]; High): +
Light/Dark Stress Response (5 min light/dark pulses) ([2]; vehicle 1% MeOH): no reduction in stress response, some
Anti-Anxiety Potential? [3]: No
Therapeutic Potential ([3]; vehicle 1% MeOH): No

COc1cc(/C=C/C(=O)N2CCC=CC2=O)cc(OC)c1OC [piperlongumine]
Baseline Exposure ([1]; Med): +
baseline Activity (90 min light) ([1]; vehicle 1% MeOH): baseline activity not like controls; also recorded: (increased at low concentrations,; also recorded: sedating at higher concentrations)
Light/Dark Stress Response ([2]; High): −−
Light/Dark Stress Response ([2]; Low): +
Light/Dark Stress Response (5 min light/dark pulses) ([2]; vehicle 1% MeOH): stress response is reduced
Thigmotaxis Model ([6]; High): −−
Thigmotaxis Model ([6]; Med): −−
Anti-Anxiety Potential? [3]: Yes

farnesene
Baseline Exposure ([1]; High): +
Baseline Exposure ([1]; Med): +
Light/Dark Stress Response ([2]; High): −−
Light/Dark Stress Response (5 min light/dark pulses) ([2]; vehicle 1% MeOH): no reduction in stress response
Anti-Anxiety Potential? [3]: Yes
Therapeutic Potential ([3]; vehicle 1% MeOH): No
